target: T1, p53 Y220C (Homo sapiens, UniProt P04637, Y220C); assay: In vitro DNA binding activity assay (HTRF / TR-FRET): stabilization of p53 Y220C and increase of its DNA binding activity; assay type: biochemical; conditions: recombinant His-tagged p53 Y220C DNA binding domain (aa 94-312), biotin-labeled consensus DNA, incubated at 27° C. or 29° C. for 60 min
T1 construct: The recombinant protein was a truncation mutant containing only amino acids 94-312 of p53; made in house; host or cells: E. coli
Outline: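 His-tagged p53 Y220C, E. coli-expressed, binding biotin-labeled consensus DNA measured by HTRF (anti-His-APC, streptavidin-europium). Compounds from 4.5 mM DMSO stocks, 3-fold serial dilutions; incubations at room temperature 15 min, then 20 min. SC150 = concentration raising DNA binding by 50%.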

T1 sequence (P04637 94-312, change not shown): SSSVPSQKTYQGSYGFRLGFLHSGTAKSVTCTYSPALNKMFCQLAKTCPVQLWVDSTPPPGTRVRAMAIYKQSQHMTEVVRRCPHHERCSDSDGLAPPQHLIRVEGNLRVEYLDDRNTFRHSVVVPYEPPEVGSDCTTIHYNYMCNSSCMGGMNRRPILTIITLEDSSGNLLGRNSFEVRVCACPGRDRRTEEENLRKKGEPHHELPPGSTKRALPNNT

| SC150 (concentration of the compound required to increase the DNA binding activity by 50%) | SMILES |
| --- | --- |
| + (+ = 0 μM ≤ SC150 < 0.05 μM) | COc1cc(C(=O)O)ccc1NCC#Cc1cc2c(N[C@H]3CCN(C(C)C)C[C@H]3F)cccc2n1CC(F)(F)F [Compound 810A, 4-{[3-(4-{[(3R,4S)-3-fluoro-1-(propan-2-yl)piperidin-4-yl]amino}-1-(2,2,2-trifluoroethyl)-1H-indol-2-yl)prop-2-yn-1-yl]amino}-3-methoxybenzoic acid] |
| + (+ = 0 μM ≤ SC150 < 0.05 μM) | COCC(O)CN1CCC(Nc2cccc3c2cc(C#CCNc2ccc(S(C)(=O)=O)cc2OCC(F)(F)F)n3CC(F)(F)F)CC1 (stereo not shown) [Compound 645A, 1-(4-{[2-(3-{[4-methanesulfonyl-2-(2,2,2-trifluoroethoxy)phenyl]amino}prop-1-yn-1-yl)-1-(2,2,2-trifluoroethyl)-1H-indol-4-yl]amino}piperidin-1-yl)-3-methoxypropan-2-ol] |
| + (+ = 0 μM ≤ SC150 < 0.05 μM) | COc1cc(S(N)(=O)=O)ccc1NCC#Cc1cc2c(N[C@H]3CC[C@H](N(CCO)CCO)CC3)cccc2n1CC(F)(F)F [Compound 44A, 3-methoxy-4-{[3-(4-{[(1R,4R)-4-[bis(2-hydroxyethyl)amino]cyclohexyl]amino}-1-(2,2,2-trifluoroethyl)-1H-indol-2-yl)prop-2-yn-1-yl]amino}benzene-1-sulfonamide] |
| + (+ = 0 μM ≤ SC150 < 0.05 μM) | CNS(=O)(=O)c1ccc(NCC#Cc2cc3c(N[C@H]4CC[C@H](N5CCC6(CC5)COC6)CC4)cccc3n2CC(F)(F)F)c(OC)c1 [Compound 395A, 3-methoxy-N-methyl-4-{[3-(4-{[(1R,4R)-4-{2-oxa-7-azaspiro[3.5]nonan-7-yl}cyclohexyl]amino}-1-(2,2,2-trifluoroethyl)-1H-indol-2-yl)prop-2-yn-1-yl]amino}benzene-1-sulfonamide] |
| +++ (+++ = 0.1 μM ≤ SC150 < 0.2 μM) | COc1cc(S(C)(=O)=O)ccc1NCC#Cc1cc2c(NC3CCN(C)CC3)cc(F)cc2n1CC(F)(F)F [Compound 475A, 6-fluoro-2-{3-[(4-methanesulfonyl-2-methoxyphenyl)amino]prop-1-yn-1-yl}-N-(1-methylpiperidin-4-yl)-1-(2,2,2-trifluoroethyl)-1H-indol-4-amine] |
| ++++ (++++ = 0.2 μM ≤ SC150 < 1 μM) | COc1cc(S(C)(=O)=O)ccc1NCC#Cc1cc2c(N[C@H]3CC[C@H](N(C)C)CC3)cccc2n1CC1CO1 (stereo partly drawn) [Compound 77A, (1R,4R)—N^4-(2-{3-[(4-methanesulfonyl-2-methoxyphenyl)amino]prop-1-yn-1-yl}-1-[(oxiran-2-yl)methyl]-1H-indol-4-yl)-N^1,N^1-dimethylcyclohexane-1,4-diamine] |
| +++ (+++ = 0.1 μM ≤ SC150 < 0.2 μM) | CN(C)[C@H]1CC[C@@H](Nc2cccc3c2cc(C#CCNc2ccc(S(C)(=O)=O)cc2C(F)(F)F)n3CC(F)(F)F)CC1 [Compound 138A, (1S,4S)-N^4-[2-(3-{[4-methanesulfonyl-2-(trifluoromethyl)phenyl]amino}prop-1-yn-1-yl)-1-(2,2,2-trifluoroethyl)-1H-indol-4-yl]-N^1,N^1-dimethylcyclohexane-1,4-diamine] |
| + (+ = 0 μM ≤ SC150 < 0.05 μM) | COCC(=O)N1CCC(Nc2cccc3c2cc(C#CCNc2ccc(S(C)(=O)=O)cc2OC)n3CC(F)(F)F)CC1 [Compound 741A, 1-{4-[(2-{3-[(4-methanesulfonyl-2-methoxyphenyl)amino]prop-1-yn-1-yl}-1-(2,2,2-trifluoroethyl)-1H-indol-4-yl)amino]piperidin-1-yl}-2-methoxyethan-1-one] |
| + (+ = 0 μM ≤ SC150 < 0.05 μM) | CCN1CCC(Nc2cccc3c2cc(C#CCNc2ccc(S(N)(=O)=O)cc2OC)n3CC(F)(F)F)CC1 [Compound 538A, 4-[(3-{4-[(1-ethylpiperidin-4-yl)amino]-1-(2,2,2-trifluoroethyl)-1H-indol-2-yl}prop-2-yn-1-yl)amino]-3-methoxybenzene-1-sulfonamide] |
| + (+ = 0 μM ≤ SC150 < 0.05 μM) | COc1cc(C(=O)NCCO)ccc1NCC#Cc1cc2c(N[C@@H]3CCN(C)C[C@@H]3F)cccc2n1CC(F)(F)F [Compound 947A] |
| + (+ = 0 μM ≤ SC150 < 0.05 μM) | COc1cc(C(N)=O)c(F)cc1NCC#Cc1cc2c(N[C@H]3CC[C@H](N4CC5(COC5)C4)CC3)cccc2n1CC(F)(F)F [Compound 273A, 2-fluoro-5-methoxy-4-{[3-(4-{[(1R,4R)-4-{2-oxa-6-azaspiro[3.3]heptan-6-yl}cyclohexyl]amino}-1-(2,2,2-trifluoroethyl)-1H-indol-2-yl)prop-2-yn-1-yl]amino}benzamide] |
| + (+ = 0 μM ≤ SC150 < 0.05 μM) | COc1cc(S(C)(=O)=O)ccc1NCC#Cc1cc2c(NC3CCN(CCCS(C)(=O)=O)CC3)cccc2n1CC(F)(F)F [Compound 706A, 2-{3-[(4-methanesulfonyl-2-methoxyphenyl)amino]prop-1-yn-1-yl}-N-[1-(3-methanesulfonylpropyl)piperidin-4-yl]-1-(2,2,2-trifluoroethyl)-1H-indol-4-amine] |
| + (+ = 0 μM ≤ SC150 < 0.05 μM) | COc1cc(C#N)ccc1NCC#Cc1cc2c(NC3CCC(N4CC5(COC5)C4)CC3)cccc2n1CC(F)(F)F [Compound 250A, 3-methoxy-4-{[3-(4-{[(1S,4S)-4-{2-oxa-6-azaspiro[3.3]heptan-6-yl}cyclohexyl]amino}-1-(2,2,2-trifluoroethyl)-1H-indol-2-yl)prop-2-yn-1-yl]amino}benzonitrile] |
| + (+ = 0 μM ≤ SC150 < 0.05 μM) | CCC(=O)OCC(CNC(=O)c1ccc(NCC#Cc2cc3c(N[C@@H]4CCN(C)C[C@@H]4F)cccc3n2CC(F)(F)F)c(OC)c1)OC(=O)CC (stereo partly drawn) [Compound 971A, 1-[(4-{[3-(4-{[(3S,4R)-3-fluoro-1-methylpiperidin-4-yl]amino}-1-(2,2,2-trifluoroethyl)-1H-indol-2-yl)prop-2-yn-1-yl]amino}-3-methoxyphenyl)formamido]-3-(propanoyloxy)propan-2-ylpropanoate] |
| + (+ = 0 μM ≤ SC150 < 0.05 μM) | COc1cc(S(C)(=O)=O)ccc1NCC#Cc1cc2c(NC3CCN(C(=O)CN(C)C)CC3)cccc2n1CC(F)(F)F [Compound 750A] |
| + (+ = 0 μM ≤ SC150 < 0.05 μM) | COCC(O)CN1CCC(Nc2cccc3c2cc(C#CCNc2ccc(S(=O)(=O)c4ccccc4)cc2OC)n3CC(F)(F)F)CC1 (stereo not shown) [Compound 691A, 1-(4-{[2-(3-{[4-(benzenesulfonyl)-2-methoxyphenyl]amino}prop-1-yn-1-yl)-1-(2,2,2-trifluoroethyl)-1H-indol-4-yl]amino}piperidin-1-yl)-3-methoxypropan-2-ol] |
| + (+ = 0 μM ≤ SC150 < 0.05 μM) | COCC(O)CN1CCC(Nc2cccc3c2cc(C#CCNc2ccc(S(=O)(=O)C4CC4)cc2OC)n3CC(F)(F)F)CC1 (stereo not shown) [Compound 685A, 1-(4-{[2-(3-{[4-(cyclopropanesulfonyl)-2-methoxyphenyl]amino}prop-1-yn-1-yl)-1-(2,2,2-trifluoroethyl)-1H-indol-4-yl]amino}piperidin-1-yl)-3-methoxypropan-2-ol] |
| + (+ = 0 μM ≤ SC150 < 0.05 μM) | COc1cc(S(C)(=O)=O)ccc1NCC#Cc1cc2c(NC3CCN(C4COC4)CC3)cccc2n1CC(F)(F)F [Compound 678A, 2-{3-[(4-methanesulfonyl-2-methoxyphenyl)amino]prop-1-yn-1-yl}-N-[1-(oxetan-3-yl)piperidin-4-yl]-1-(2,2,2-trifluoroethyl)-1H-indol-4-amine] |
| + (+ = 0 μM ≤ SC150 < 0.05 μM) | CS(=O)(=O)c1ccc(NCC#Cc2cc3c(N[C@H]4CC[C@@H](N5CC6(CCOCC6)C5)CC4)cccc3n2CC(F)(F)F)c(OCC#N)c1 [Compound 304A, 2-(5-methanesulfonyl-2-{[3-(4-{[(1S,4S)-4-{7-oxa-2-azaspiro[3.5]nonan-2-yl}cyclohexyl]amino}-1-(2,2,2-trifluoroethyl)-1H-indol-2-yl)prop-2-yn-1-yl]amino}phenoxy)acetonitrile] |
| + (+ = 0 μM ≤ SC150 < 0.05 μM) | COc1cc(S(N)(=O)=O)ccc1NCC#Cc1cc2c(N[C@@H]3CCO[C@@H](C)C3)cccc2n1CC(F)(F)F [Compound 1018A, 3-methoxy-4-{[3-(4-{[(2S,4R)-2-methyloxan-4-yl]amino}-1-(2,2,2-trifluoroethyl)-1H-indol-2-yl)prop-2-yn-1-yl]amino}benzene-1-sulfonamide] |
| + (+ = 0 μM ≤ SC150 < 0.05 μM) | COc1cc(S(=O)(=O)NC2CCOCC2)ccc1NCC#Cc1cc2c(NC3CCN(C)CC3)cccc2n1CC(F)(F)F [Compound 470A, 3-methoxy-4-[(3-{4-[(1-methylpiperidin-4-yl)amino]-1-(2,2,2-trifluoroethyl)-1H-indol-2-yl}prop-2-yn-1-yl)amino]-N-(oxan-4-yl)benzene-1-sulfonamide] |

| SMILES | SC150 (concentration of the compound required to increase the DNA binding activity by 50%) |
| --- | --- |
| CCOc1cc(S(C)(=O)=O)ccc1NCC#Cc1cc2c(N[C@H]3CC[C@@H](N4CC5CC(C4)O5)CC3)cccc2n1CC(F)(F)F [Compound 405A, 2-{3-[(2-ethoxy-4-mcthanesulfonyl-phenyl)amino]prop-1-yn-1-yl}-N-[(1S,4S)-4-{6-oxa-3-azabicyclo[3.1.1]heptan-3-yl}cyclohexyl]-1-(2,2,2-trifluoroethyl)-1H-indol-4-amine] | + (+ = 0 μM ≤ SC150 < 0.05 μM) |
